The first experiment deals with HDAC. Kind of experiment: Inhibitory activity against HDAC (BIOMOL Quantizyme Assay system, Fluor de Lys substrate). As to conditions: Table 1, formula (1) series; HeLa nuclear extract as source of HDAC enzymes; enzyme reaction 1 hr; read-out: IC50 (HDAC inhibitory concentration). It counts as biochemical. Here is the method:
HDAC activity was analyzed using BIOMOL Quantizyme™ Assay system which comprised two steps of 1) enzyme reaction between HDAC and a substrate and 2) determination of the level of HDAC inhibitory activity.
(§1) 0.5 μl of HeLa nuclear organic layer (10 μM) (a source of HDAC enzymes) was then added thereto to a final concentration of 100 nM. The enzyme reaction was carried out for 1 hr.
Subsequently, in step 2), 2 μM tricostatin A was added to 50 μl of Flour de Lys™ developer, followed by allowing the mixture to react at room temperature for 15 minutes. The light excited at 355 nm and emitted at 460 nm from the fluorophore was measured with a fluorometric plate reader. The intensity of the fluorescence increases as the enzyme activity is higher. The HDAC inhibitory activity of each of the test compounds was determined and compared with that of the control.
0.5 μl of HeLa nuclear organic layer (10 μM) (a source of HDAC enzymes) was then added thereto to a final concentration of 100 nM, The enzyme reaction was carried out for 1 hr.
as §1, §1
On to `COc1ccc(CCNC(=O)/C(=C/c2ccc(C(=O)NO)cc2)COc2cccc3ccccc23)cc1` [Example 1-3, (E)-4-(3-(4-Methoxyphenethylamino)-2-((naphthalen-1-yloxy)methyl)-3-oxoprop-1-enyl)-N-hydroxybenzamide], for which the IC50 came to 0.08 µM.

Consider “(E)-(3-(3-(Pyrrolidin-1-yl)propylamino)-2-((naphthalen-1-yloxy)methyl)-3-oxoprop-1-enyl)-N-hydroxybenzamide [Example 1-20]”, for which the IC50 was determined as 0.006 µM.

`O=C(NCCCn1ccnc1)/C(=C/c1ccc(C(=O)NO)cc1)COc1cccc2ccccc12` [Example 1-2, (E)-4-(3-(3-(1H-Imidazol-1-yl)propylamino)-2-((naphthalen-1-yloxy)methyl)-3-oxopropenyl)-N-hydroxybenzamide]: the IC50 was 0.028 µM. The same measure, in the same setting: as for `CCOCCCNC(=O)/C(=C/c1ccc(C(=O)NO)cc1)COc1cccc2ccccc12` [Example 1-21, (E)-4-(3-(3-Ethoxypropylamino)-2-((naphthalen-1-yloxy)methyl)-3-oxoprop-1-enyl)-N-hydroxybenzamide], the figure is 0.021 µM; as for `O=C(NC1CCCCC1)/C(=C/c1ccc(C(=O)NO)cc1)COc1cccc2ccccc12` [Example 1-15, (E)-4-(3-(Cyclohexylamino)-2-((naphthalen-1-yloxy)methyl)-3-oxoprop-1-enyl)-N-hydroxybenzamide], 0.04 µM.

Take “(E)-(3-(3-(2-Methylpiperidin-1-yl)propylamino)-2-((naphthalen-1-yloxy)methyl)-3-oxoprop-1-enyl)-N-hydroxybenzamide [Example 1-19]”: the IC50 came to 0.009 µM.

Still in this experiment, the particulars now being: Table 3, formula (2) series; HeLa nuclear extract as source of HDAC enzymes; enzyme reaction 1 hr; read-out: IC50 (HDAC inhibitory concentration).
With `CCN1CCC(NC(=O)/C(=C/CCCCC(=O)NO)COc2cccc3ccccc23)C1` (centres unmarked) [Example 2-29, (E)-N1-(1-Ethylpyrrolidin-3-yl)-N8-hydroxy-2-((naphthalen-1-yloxy)methyl)-2-octenediamide], the IC50 is 0.01 µM. `O=C(CCCC/C=C(\COc1cccc2ccccc12)C(=O)NCc1ccc(OC(F)(F)F)cc1)NO` [Example 2-17, (E)-N8-Hydroxy-2-((naphthalen-1-yloxy)methyl)-N1-(4-(trifluoromethoxy)benzyl)-2-octenediamide]: the IC50 came to 0.007 µM. As to `O=C(CCCC/C=C(\COc1cccc2ccccc12)C(=O)NCCc1ccc(F)cc1)NO` [Example 2-7, (E)-N1-(4-Fluorophenethyl)-N8-hydroxy-2-((naphthalen-1-yloxy)methyl)-2-octenediamide], the IC50 turned out to be 0.02 µM. Turning to `O=C(CCCC/C=C(\COc1cccc2ccccc12)C(=O)NCCc1ccc(O)cc1)NO` [Example 2-2, (E)-N8-Hydroxy-N1-(4-hydroxyphenethyl)-2-((naphthalen-1-yloxy)methyl)-2-octenediamide], the IC50 turned out to be 0.009 µM. Still for that read-out and setting: as for `COCC(C)NC(=O)/C(=C/CCCCC(=O)NO)COc1cccc2ccccc12` (centres unmarked) [Example 2-5, (E)-N8-Hydroxy-N1-(1-methoxypropan-2-yl)-2-((naphthalen-1-yloxy)methyl)-2-octenediamide], the figure is 0.017 µM; as for “(E)-N1-(3-(Dimethylamino)-2,2-dimethylpropyl)-N8-hydroxy-2-((naphthalen-1-yloxy)methyl)octenediamide [Example 2-3]”, 0.021 µM. On to `O=C(CCCC/C=C(\COc1cccc2ccccc12)C(=O)NC1CCN(C(=O)C2CCCCC2)C1)NO` (centres unmarked) [Example 2-22, (E)-N1-(1-(Cyclohexanecarbonyl)pyrrolidin-3-yl)-N8-hydroxy-2-((naphthalen-1-yloxy)methyl)-2-octenediamide], for which the IC50 stood at 0.022 µM. Still for that read-out and setting: as for `O=C(CCCC/C=C(\COc1cccc2ccccc12)C(=O)NC1CCN(CC2CCCCC2)C1)NO` (centres unmarked) [Example 2-18, (E)-N1-(1-(Cyclohexylmethyl)pyrrolidin-3-yl)-N8-hydroxy-2-((naphthalen-1-yloxy)methyl)-2-octenediamide], the figure is 0.01 µM.

Still in this experiment, the particulars now being: Table 5, formula (3) series; HeLa nuclear extract as source of HDAC enzymes; enzyme reaction 1 hr; read-out: Inhibitory conc. (IC50, μM/ml).
As to `CN(C)CCCNC/C(=C/CCCCC(=O)NO)COc1cccc2ccccc12` [Example 3-6, (Z)-8-(3-(Dimethylamino)propylamino)-N-hydroxy-7-((naphthalen-1-yloxy)methyl)oct-6-enamide], the IC50 came out at 0.002 µM. On the same count and under the same terms, as for `CC(C)N(CCNC/C(=C/CCCCC(=O)NO)COc1cccc2ccccc12)C(C)C` [Example 3-13], the figure is 0.042 µM; as for `CCN(CC)CCCNC/C(=C/CCCCC(=O)NO)COc1cccc2ccccc12` [Example 3-12, (Z)-8-(3-(Diethylamino)propylamino)-N-hydroxy-7-((naphthalen-1-yloxy)methyl)oct-6-enamide], 0.113 µM.

Consider `CC1CCCCN1CCCNC/C(=C/CCCCC(=O)NO)COc1cccc2ccccc12` (centres unmarked) [Example 3-5, (Z)—N-Hydroxy-8-(3-(2-methylpiperidin-1-yl)propylamino)-7-((naphthalen-1-yloxy)methyl)oct-6-enamide], for which the IC50 was determined as 0.062 µM.

The same experiment, now with this note: Table 7, formula (4) series; HeLa nuclear extract as source of HDAC enzymes; enzyme reaction 1 hr; read-out: HDAC Inhibitory conc. (IC50, μM/ml).
On to `O=C(NO)c1ccc(/C=C(/CNC2CCN(C3CC3)C2)COc2cccc3ccccc23)cc1` (centres unmarked) [Example 4-11, (Z)-4-(3-(1-cyclopropylpyrrolidin-3-ylamino)-2-((naphthalen-1-yloxy)methyl)prop-1-enyl)-N-hydroxybenzamide], for which the IC50 was determined as 0.023 µM.

For `O=C(NO)c1ccc(/C=C(/CNC2CCCCC2)COc2cccc3ccccc23)cc1` [Example 4-21, (Z)-4-(3-(cyclohexylamino)-2-((naphthalen-1-yloxy)methyl)prop-1-enyl)-N-hydroxybenzamide], the IC50 was 0.03 µM. On to `CN1CCCC1CCNC/C(=C/c1ccc(C(=O)NO)cc1)COc1cccc2ccccc12` (centres unmarked) [Example 4-14, (Z)—N-hydroxy-4-(3-(2-(1-methylpyrrolidin-2-yl)ethylamino)-2-((naphthalen-1-yloxy)methyl)prop-1-enyl)benzamide], for which the IC50 amounted to 0.013 µM. The same measure, in the same setting: under `O=C(NO)c1ccc(/C=C(/CNCc2ccc(OC(F)(F)F)cc2)COc2cccc3ccccc23)cc1` [Example 4-3, (Z)—N-hydroxy-4-(3-(naphthalen-1-yloxy)-2-((4-(trifluoromethoxy)benzylamino)methyl)prop-1-enyl)-benzamide] stands 0.14 µM; under `O=C(NO)c1ccc(/C=C(/CNC2CCN(Cc3ccccc3)C2)COc2cccc3ccccc23)cc1` (centres unmarked) [Example 4-9, (Z)-4-(3-(1-benzylpyrrolidin-3-ylamino)-2-((naphthalen-1-yloxy)methyl)prop-1-enyl)-N-hydroxybenzamide], 0.046 µM. The same measure, in the same setting: as for `O=C(NO)c1ccc(/C=C(/CNC2CCNC2)COc2cccc3ccccc23)cc1` (centres unmarked) [Example 4-5, (Z)—N-hydroxy-4-(3-(naphthalen-1-yloxy)-2-((pyrrolidin-3-ylamino)methyl)prop-1-enyl)-benzamide], the figure is 0.02 µM; as for `O=C(NO)c1ccc(/C=C(/CNC2CCN(CC3CCCCC3)C2)COc2cccc3ccccc23)cc1` (centres unmarked) [Example 4-8, (Z)-4-(3-(1-(cyclohexylmethyl)pyrrolidin-3-ylamino)-2-((naphthalen-1-yloxy)-methyl)prop-1-enyl)-N-hydroxybenzamide], 0.045 µM.

The next experiment relates to colon cancer cells HCT116. Kind of experiment: Inhibitory activity against proliferation of cancer cells, SRB (Sulforhodamine B) analysis. It counts as cell-based. To be noted: Homo sapiens, HCT-116, Table 2, 48 hrs incubation with compound, read-out: Inhibitory conc. against cancer cell growth (EC50 μM) HCT116. On the procedure: Cancer cells were inoculated into a 96-well microplate at a concentration of 1×10^3˜3×10^3 cells/well and incubated under the condition of 37° C., 5% CO2 for 24 hrs. After the incubation was completed, 0.2, 1, 5, 25, or 100 μM of each of the compounds of Examples was added to the plate, and then the reactant was incubated for 48 hrs. After the substrate was stained with SRB, the anti-cancer activity was determined by comparing the amount of protein in the cells treated with the compound of Examples with that of protein in untreated cells.
Specifically, after the incubation was completed, the culture medium was removed from each well, and the cells were washed 3 times with PBS (pH 7.4). Then, a solution of 50% trichloroacetic acid (TCA) was added to each well in an amount of 50 μl/well at 4° C. for 1 hr to fix them. Then, the microplate was washed 5 times with distilled water and dried in air. […]
50 μl of a staining solution prepared by dissolving 0.4% SRB in 1% acetic acid was added to the wells, and the microplate was kept at room temperature for 1 hr. The well plate was then washed 5 times with 1% acetic acid to remove unbound SRB and dried in air. The stained cells were treated with 150 μl/well of 10 mM Tris-HCl solution (pH 10.5) to elute SRB from the cells, and the absorbance of the cells treated with the compounds of examples at 540 nm was measured, based on the absorbance of an untreated cell. The EC50 value representing inhibition of the cancer cell growth by the extent of 50% was calculated from the measured absorbance, and the results are shown in Table 6.
In the case of `CC(C)N1CCC(NC(=O)/C(=C/c2ccc(C(=O)NO)cc2)COc2cccc3ccccc23)CC1` [Example 1-23, (E)-4-(3-(1-Isopropylpiperidin-4-ylamino)-2-((naphthalen-1-yloxy)methyl)-3-oxoprop-1-enyl)-N-hydroxybenzamide], the EC50 (commonly the concentration needed to bring the measured effect to its halfway point) is 0.7 µM.

Still in this experiment, the particulars now being: Homo sapiens, HCT-116, Table 4, 48 hrs incubation with compound, read-out: Inhibitory conc. against cancer cell growth (EC50 μM) HCT116.
As for `CCN1CCC(NC(=O)/C(=C/CCCCC(=O)NO)COc2cccc3ccccc23)C1` (centres unmarked) [Example 2-29, (E)-N1-(1-Ethylpyrrolidin-3-yl)-N8-hydroxy-2-((naphthalen-1-yloxy)methyl)-2-octenediamide], the EC50 stood at 0.9 µM. The same measure, in the same setting: as for `O=C(CCCC/C=C(\COc1cccc2ccccc12)C(=O)NC1CCCCC1)NO` [Example 2-14, (E)-N1-Cyclohexyl-N8-hydroxy-2-((naphthalen-1-yloxy)methyl)-2-octenediamide], the figure is 0.8 µM.

The experiment is the same for the next values; noted with them: Homo sapiens, HCT-116, Table 8, 48 hrs incubation with compound, read-out: Inhibitory conc. against cancer cell growth (EC50 μM) HCT116.
In the case of `O=C(NO)c1ccc(/C=C(/CNC2CCN(C3CC3)C2)COc2cccc3ccccc23)cc1` (centres unmarked) [Example 4-11, (Z)-4-(3-(1-cyclopropylpyrrolidin-3-ylamino)-2-((naphthalen-1-yloxy)methyl)prop-1-enyl)-N-hydroxybenzamide], the EC50 was found to be 1 µM.

These data come from patent US8053435B2, “Naphthalenyloxypropenyl derivatives having inhibitory activity against histone deacetylase and pharmaceutical composition comprising the same” (Korea Research Institute of Chemical Technology, priority 2006, dated 2011).
